# Measured values: article PMC6193035, “Novel small molecules affecting cell membrane as potential therapeutics for avian pathogenic Escherichia coli” (Scientific Reports, 2018)
# Marks after values point to notes of the source that are not given here.
# Columns and labels:
# APEC O78 [1] = experiment: Bacterial cytological profiling by confocal microscopy; type: cell-based, Escherichia coli; conditions: 2X MBC, 2 h
# Method in brief: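 After compound treatment, bacteria were washed, resuspended in PBS and stained with FM4-64 (1 µg/mL) and SYTO-9 (5 µM) for 45 mins at room temperature with shaking. Cells were then concentrated 10-fold in PBS and imaged by confocal microscopy to profile the pathways targeted.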
# APEC O78 [2] = experiment: Loss of 260/280 nm absorbing materials assay; type: cell-based, Escherichia coli; conditions: 2X MBC, 1 h; for Absorbance 280 nm of treated supernatant: DMSO 2.58; for Absorbance 280 nm of treated supernatant / Absorbance 260 nm of treated supernatant: superscript a P < 0.05 vs DMSO; for Absorbance 260 nm of treated supernatant: DMSO 3.77
# Procedure: (§1) Membrane permeability assays (crystal violet (CV) uptake and loss of 260/280 nm absorbing materials) were conducted as described previously. […] CV uptake was measured using the formula: (OD DMSO − OD SM/OD DMSO × 100). Two independent experiments in duplicates were conducted.
# APEC O78-53 = experiment: MIC and MBC determination in M63 media; type: cell-based; conditions: Escherichia coli; APEC O78-53, M63 media
# Method in brief: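 Bacteria in M63 medium were first normalised to OD600 0.05, then each compound concentration (1 µL) was dosed into 100 µL aliquots. Absorbance at 600 nm was monitored over growth. Wells were subsequently subcultured onto LB agar to determine bactericidal endpoints.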
# APEC O2-211 = experiment: MIC and MBC determination in M63 media; type: cell-based; conditions: Escherichia coli; APEC O2-211, M63 media
# APEC O115 = experiment: MIC and MBC determination in M63 media; type: cell-based; conditions: Escherichia coli
# APEC O1 = experiment: MIC and MBC determination in M63 media; type: cell-based; conditions: Escherichia coli
# APEC O35 = experiment: MIC and MBC determination in M63 media; type: cell-based; conditions: Escherichia coli
# APEC O78 [3] = experiment: Crystal violet (CV) uptake assay; type: cell-based, Escherichia coli; conditions: 2X MBC, 30 mins; P < 0.05, Student's t-test
# Procedure: as §1
# [4] = system: intracellular APEC O78, O2, and O1 in infected Caco-2, HD11, and THP1 cells; experiment: Intracellular survival assay, statements over all serotypes and cells; type: cell-based, Escherichia coli; conditions: for minimal effective concentration: Escherichia coli, 6 h, O78, O2 and O1, Caco-2, HD11, THP-1, read-out: concentration clearing intracellular APEC
# Method in brief: (§2)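 Readout: intracellular APEC CFU after Triton X-100 lysis and plating, normalised against 1% DMSO wells. Infection: MOI 10, 1 h macrophages, 3 h Caco-2.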
# [5] = system: intracellular APEC O78 in HD11 cells; experiment: Intracellular survival assay; type: cell-based, Escherichia coli; conditions: for minimal effective concentration: Escherichia coli, O78, HD11, 6 h treatment, read-out: SMs intracellular APEC clearance concentration; for intracellular APEC clearance concentration as multiple of MIC (superscript): O78, HD11; for concentration at which the SM significantly (P < 0.01) reduced intracellular APEC (superscript of t-statistic): O78, HD11, 6 h
# Method in brief: as §2
# [6] = system: intracellular APEC O2 in Caco-2 cells; experiment: Intracellular survival assay; type: cell-based, Escherichia coli; conditions: for minimal effective concentration: Escherichia coli, O2, Caco-2, 6 h treatment, read-out: SMs intracellular APEC clearance concentration; for concentration at which the SM significantly (P < 0.01) reduced intracellular APEC (superscript of t-statistic): O2, Caco-2, 6 h
# Method in brief: as §2
# [7] = system: intracellular APEC O1 in THP-1 cells; experiment: Intracellular survival assay; type: cell-based, Escherichia coli; conditions: for minimal effective concentration: Escherichia coli, O1, THP-1, 6 h treatment, read-out: SMs intracellular APEC clearance concentration; for intracellular APEC clearance concentration as multiple of MIC (superscript): O1, THP-1; for concentration at which the SM significantly (P < 0.01) reduced intracellular APEC (superscript of t-statistic): O1, THP-1, 6 h
# Method in brief: as §2
# [8] = system: intracellular APEC O2 in HD11 cells; experiment: Intracellular survival assay; type: cell-based, Escherichia coli; conditions: for minimal effective concentration: Escherichia coli, O2, HD11, 6 h treatment, read-out: SMs intracellular APEC clearance concentration; for intracellular APEC clearance concentration as multiple of MIC (superscript): O2, HD11; for concentration at which the SM significantly (P < 0.01) reduced intracellular APEC (superscript of t-statistic): O2, HD11, 6 h
# Method in brief: as §2
# [9] = system: intracellular APEC O1 in Caco-2 cells; experiment: Intracellular survival assay; type: cell-based, Escherichia coli; conditions: for minimal effective concentration: Escherichia coli, O1, Caco-2, 6 h treatment, read-out: SMs intracellular APEC clearance concentration; for concentration at which the SM significantly (P < 0.01) reduced intracellular APEC (superscript of t-statistic): O1, Caco-2, 6 h
# Method in brief: as §2
# [10] = system: intracellular APEC O2 in THP-1 cells; experiment: Intracellular survival assay; type: cell-based, Escherichia coli; conditions: for minimal effective concentration: Escherichia coli, O2, THP-1, 6 h treatment, read-out: SMs intracellular APEC clearance concentration; for concentration at which the SM significantly (P < 0.01) reduced intracellular APEC (superscript of t-statistic): O2, THP-1, 6 h
# Method in brief: as §2
# [11] = system: intracellular APEC O1 in HD11 cells; experiment: Intracellular survival assay; type: cell-based, Escherichia coli; conditions: for minimal effective concentration: Escherichia coli, O1, HD11, 6 h treatment, read-out: SMs intracellular APEC clearance concentration; for concentration at which the SM significantly (P < 0.01) reduced intracellular APEC (superscript of t-statistic): O1, HD11, 6 h
# Method in brief: as §2
# [12] = system: intracellular APEC O78 in THP-1 cells; experiment: Intracellular survival assay; type: cell-based, Escherichia coli; conditions: for minimal effective concentration: Escherichia coli, O78, THP-1, 6 h treatment, read-out: SMs intracellular APEC clearance concentration; for intracellular APEC clearance concentration as multiple of MIC (superscript): O78, THP-1; for concentration at which the SM significantly (P < 0.01) reduced intracellular APEC (superscript of t-statistic): O78, THP-1, 6 h
# Method in brief: as §2
# [13] = system: intracellular APEC O78 in Caco-2 cells; experiment: Intracellular survival assay; type: cell-based, Escherichia coli; conditions: for minimal effective concentration: Escherichia coli, O78, Caco-2, 6 h treatment, read-out: SMs intracellular APEC clearance concentration; for intracellular APEC clearance concentration as multiple of MIC (superscript): O78, Caco-2; for concentration at which the SM significantly (P < 0.01) reduced intracellular APEC (superscript of t-statistic): O78, Caco-2, 6 h
# Method in brief: as §2
# APEC O15 = experiment: MIC and MBC determination in M63 media; type: cell-based; conditions: Escherichia coli
structure (smiles),measurement,setting,value
COc1cc(CNCCc2ccc3ccccc3c2)ccc1OCC(O)CN1CCCC1 (centres unmarked) [SM2],cytological profile (FM4-64 / SYTO-9 staining),APEC O78 [1],bright red foci at random positions throughout the cell indicating membrane defects (membrane pore formers)
same,280 nm absorbing materials in supernatant compared with DMSO,APEC O78 [2],"significantly (P < 0.05, Student’s t-test) increased"
same,Absorbance 280 nm of treated supernatant,APEC O78 [2],2.86^a
same,Absorbance 260 nm of treated supernatant,APEC O78 [2],3.71
same,MBC,APEC O78-53,200 µM
same,MIC,APEC O78-53,100 µM
same,MBC,APEC O2-211,100 µM
same,MIC,APEC O2-211,100 µM
same,MBC,APEC O115,200 µM
same,MIC,APEC O115,200 µM
same,MBC,APEC O1,250 µM
same,MIC,APEC O1,200 µM
same,MBC,APEC O35,200 µM
same,MIC,APEC O35,100 µM
same,uptake of crystal violet compared with DMSO,APEC O78 [3],increased the uptake of crystal violet
same,minimal effective concentration,[4],≥ 100 µM
same,minimal effective concentration,[5],100 µM
same,intracellular APEC clearance concentration as multiple of MIC (superscript),[5],a (1X MIC)
same,concentration at which the SM significantly (P < 0.01) reduced intracellular APEC (superscript of t-statistic),[5],a (0.5X MIC)
same,minimal effective concentration,[6],> 200 µM
same,concentration at which the SM significantly (P < 0.01) reduced intracellular APEC (superscript of t-statistic),[6],b (1X MIC)
same,minimal effective concentration,[7],200 µM
same,intracellular APEC clearance concentration as multiple of MIC (superscript),[7],b (2X MIC)
same,concentration at which the SM significantly (P < 0.01) reduced intracellular APEC (superscript of t-statistic),[7],a (0.5X MIC)
same,minimal effective concentration,[8],200 µM
same,intracellular APEC clearance concentration as multiple of MIC (superscript),[8],b (2X MIC)
same,concentration at which the SM significantly (P < 0.01) reduced intracellular APEC (superscript of t-statistic),[8],a (0.5X MIC)
same,minimal effective concentration,[9],> 200 µM
same,concentration at which the SM significantly (P < 0.01) reduced intracellular APEC (superscript of t-statistic),[9],a (0.5X MIC)
same,minimal effective concentration,[10],100 µM
same,concentration at which the SM significantly (P < 0.01) reduced intracellular APEC (superscript of t-statistic),[10],b (1X MIC)
same,minimal effective concentration,[11],200 µM
same,concentration at which the SM significantly (P < 0.01) reduced intracellular APEC (superscript of t-statistic),[11],a (0.5X MIC)
same,minimal effective concentration,[12],100 µM
same,intracellular APEC clearance concentration as multiple of MIC (superscript),[12],a (1X MIC)
same,concentration at which the SM significantly (P < 0.01) reduced intracellular APEC (superscript of t-statistic),[12],a (0.5X MIC)
same,minimal effective concentration,[13],100 µM
same,intracellular APEC clearance concentration as multiple of MIC (superscript),[13],a (1X MIC)
same,concentration at which the SM significantly (P < 0.01) reduced intracellular APEC (superscript of t-statistic),[13],a (0.5X MIC)
same,MBC,APEC O15,100 µM
same,MIC,APEC O15,100 µM
CCN1/C(=C/c2ccc3ccccc3[n+]2CC)C=Cc2ccccc21 [SM9],cytological profile (FM4-64 / SYTO-9 staining),APEC O78 [1],filamentous or short rods (spheroplasts) morphology (PG synthesis inhibitors)
same,260 nm absorbing materials in supernatant compared with DMSO,APEC O78 [2],"significantly (P < 0.05, Student’s t-test) increased"
same,280 nm absorbing materials in supernatant compared with DMSO,APEC O78 [2],"significantly (P < 0.05, Student’s t-test) increased"
same,Absorbance 280 nm of treated supernatant,APEC O78 [2],2.78^a
same,Absorbance 260 nm of treated supernatant,APEC O78 [2],3.99^a
same,MBC,APEC O78-53,25 µM
same,MIC,APEC O78-53,25 µM
same,MBC,APEC O2-211,25 µM
same,MIC,APEC O2-211,25 µM
same,MBC,APEC O115,50 µM
same,MIC,APEC O115,25 µM
same,MBC,APEC O1,50 µM
same,MIC,APEC O1,25 µM
same,MBC,APEC O35,50 µM
same,MIC,APEC O35,25 µM
same,uptake of crystal violet compared with DMSO,APEC O78 [3],increased the uptake of crystal violet
same,minimal effective concentration,[4],≤ 100 µM
same,ranking in clearing intracellular APEC,[4]; all tested serotypes and cells,most effective SMs in clearing intracellular APEC serotypes in all tested cells
same,minimal effective concentration,[5],100 µM
same,intracellular APEC clearance concentration as multiple of MIC (superscript),[5],c (4X MIC)
same,concentration at which the SM significantly (P < 0.01) reduced intracellular APEC (superscript of t-statistic),[5],c (2XMIC)
same,minimal effective concentration,[6],100 µM
same,intracellular APEC clearance concentration as multiple of MIC (superscript),"[6]; O2, Caco-2",c (4X MIC)
same,concentration at which the SM significantly (P < 0.01) reduced intracellular APEC (superscript of t-statistic),[6],c (2XMIC)
same,minimal effective concentration,[7],50 µM
same,intracellular APEC clearance concentration as multiple of MIC (superscript),[7],b (2X MIC)
same,concentration at which the SM significantly (P < 0.01) reduced intracellular APEC (superscript of t-statistic),[7],b (1X MIC)
same,minimal effective concentration,[8],100 µM
same,intracellular APEC clearance concentration as multiple of MIC (superscript),[8],c (4X MIC)
same,concentration at which the SM significantly (P < 0.01) reduced intracellular APEC (superscript of t-statistic),[8],c (2XMIC)
same,minimal effective concentration,[9],100 µM
same,intracellular APEC clearance concentration as multiple of MIC (superscript),"[9]; O1, Caco-2",c (4X MIC)
same,concentration at which the SM significantly (P < 0.01) reduced intracellular APEC (superscript of t-statistic),[9],c (2XMIC)
same,minimal effective concentration,[10],50 µM
same,concentration at which the SM significantly (P < 0.01) reduced intracellular APEC (superscript of t-statistic),[10],b (1X MIC)
same,minimal effective concentration,[11],100 µM
same,concentration at which the SM significantly (P < 0.01) reduced intracellular APEC (superscript of t-statistic),[11],b (1X MIC)
same,minimal effective concentration,[12],50 µM
same,intracellular APEC clearance concentration as multiple of MIC (superscript),[12],b (2X MIC)
same,concentration at which the SM significantly (P < 0.01) reduced intracellular APEC (superscript of t-statistic),[12],b (1X MIC)
same,minimal effective concentration,[13],50 µM
same,intracellular APEC clearance concentration as multiple of MIC (superscript),[13],b (2X MIC)
same,concentration at which the SM significantly (P < 0.01) reduced intracellular APEC (superscript of t-statistic),[13],b (1X MIC)
same,MBC,APEC O15,100 µM
same,MIC,APEC O15,25 µM
